This note sets out measurements from PMC9854187, “A novel Mcl-1 inhibitor synergizes with venetoclax to induce apoptosis in cancer cells” (Molecular Medicine, 2023).

This assay has as its target T1, Mcl-1 (Homo sapiens, UniProt Q07820).
T1 construct: gene MCL1; recombinant GST-Mcl-1
Nature of the assay: fluorescence polarization with recombinant GST-Mcl-1; supported by GST pull-down showing disruption of Mcl-1/Bak. In kind it is binding. (Fluorescence polarisation rises when a labelled molecule tumbles more slowly, as on binding a larger partner.)

T1 sequence (Q07820 whole entry): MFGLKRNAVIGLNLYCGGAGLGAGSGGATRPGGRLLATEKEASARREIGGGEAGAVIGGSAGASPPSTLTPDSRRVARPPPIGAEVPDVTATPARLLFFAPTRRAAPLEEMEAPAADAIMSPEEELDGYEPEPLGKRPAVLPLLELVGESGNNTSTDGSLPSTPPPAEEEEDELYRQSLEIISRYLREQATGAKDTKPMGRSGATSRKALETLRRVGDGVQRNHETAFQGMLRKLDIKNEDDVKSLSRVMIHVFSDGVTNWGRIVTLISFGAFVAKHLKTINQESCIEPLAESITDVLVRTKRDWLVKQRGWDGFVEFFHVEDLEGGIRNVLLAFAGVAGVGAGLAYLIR

For the compound `Cc1cc(Cl)ccc1NC(=O)C(=O)C(C(=O)c1ccc2ccccc2c1)C1OC(=O)c2ccccc21` (stereo not shown) [MI-238], the Ki – broadly, the equilibrium dissociation constant of an inhibitor or competing ligand from its target – is 450 ± 50 nM.
